According to patent publication US4613618A, “Method for treating disorders of lipid metabolism using benzene sulfonamides” (Choay S.A., priority 1981, dated 1986):
Read-outs that look alike come from different tables or passages of the source.

What was measured:
[1] = test system: atherosclerosis inducing diet (cholesterol, cholic acid, vitamine D2); experiment: Atherosclerosis inducing diet: biochemical exams; format: in vivo, Wistar female rats; parameters: CHOLESTEROL T, % reduction with respect to the control diet / CHOLESTEROL HDL, % with respect to the control diet / CHOLESTEROL LDL, % reduction with respect to the control diet / TRIGLYCERIDES, % reduction with respect to the control diet: concentration or dose not given beside the values; conditions: for TRIGLYCERIDES, % reduction with respect to the control diet / CHOLESTEROL HDL, % with respect to the control diet / CHOLESTEROL LDL, % reduction with respect to the control diet / CHOLESTEROL T, % reduction with respect to the control diet: 4 weeks administration; for CHOLESTEROL HDL, Score with respect to clofibrate / CHOLESTEROL LDL, Score with respect to clofibrate / CHOLESTEROL T, Score with respect to clofibrate / TRIGLYCERIDES, Score with respect to clofibrate: clofibrate counted as 1; for CHOLESTEROL T, % reduction with respect to the control diet: total cholesterol
Experimental: (§1) In a second experimental series, tha activity of certain products according to the invention were tested on animals which had received an atherosclerosis inducing diet for a long period.
(§2) The test was carried out on Wistar female rats, of weight about 160-180 g.
(§3) The animals received food coming from the National Nutrition plant of Villemoisson-sur-Orge, France, and denoted by the reference UAR AO3, enriched in cholesterol (0.5%) and in cholic acid (0.5%).
(§4) After 15 days of the atherosclerosis inducing diet and whilst maintaining the animals on an atherosclerosis inducing diet, they were given orally for 4 days 250.000 iu/kg of vitamine D2 marketed under the name Sterogyl 25H, in solution in olive oil.
(§5) Then the products under study were administered for 4 weeks, from the end of the administration of the lesion-inducing agent.
At the end of the study, biochemical examinations were carried out on all the animals [total cholesterol, high density lipoprotein (HDL) and cholesterol low density lipoprotein (LDL), and triglycerides].
(§6) Then the pecentage reduction with respect to the diet controls and the score were calculated, that is to say the ratio of the intensity of the activity of the product tested with respect to that of the activity of clofibrate, reckoned as 1.
Table IX gives the detailed results of the biochemical examination:
(a) in % reduction with respect to the control die;
(b) as score, with respect to the reference product, clofibrate, the latter being counted as 1.

atherosclerosis lesions = experiment: Atherosclerosis inducing diet: macroscopic exams (affected animals); format: in vivo, Wistar female rats; conditions: for Score with respect to the reference clofibrate (animals afflicted with lesions): clofibrate counted as 1; for AFFECTED ANIMALS %: macroscopic exams, TEM-diet 100
Experimental: as §1, §2, §3, §4, §5
(§7) At the end of the study, all the animals still alive were sacrificed, and various organs were removed, particularly the aorta, for histological study of the latter. Two criteria were examined: the number of atherosclerosis areas and the severity of the lesions.
as §6
Table X gives the results of macroscopic examinations:
(a) in % decrease in animals afflicted with lesions;
(b) as score with respect to the reference clofibrate, of which the score was counted as 1.

aorta = experiment: Atherosclerosis inducing diet: microscopic observations (aorta, histology); format: in vivo, Wistar female rats; parameters: HISTOLOGICAL QUOTATION, percentage reduction with respect to the diet controls / NUMBER OF ATHEROSCLEROTIC AREAS, percentage reduction with respect to the diet controls: concentration or dose not given beside the values; conditions: for NUMBER OF ATHEROSCLEROTIC AREAS: TEM-diet 160; for HISTOLOGICAL QUOTATION, score with respect to clofibrate / NUMBER OF ATHEROSCLEROTIC AREAS, score with respect to clofibrate: clofibrate counted as 1; for HISTOLOGICAL QUOTATION, percentage reduction with respect to the diet controls / HISTOLOGICAL QUOTATION: severity of the lesions; for HISTOLOGICAL QUOTATION: TEM-diet 132
Experimental: as §1, §2, §3, §4, §5, §7
Calculation of the figures was carried out in the following manner:
as regards the severity of the lesions, a quotation ranging from 0 for absence of a lesion to 5+ for the severest lesions was made, and this for each type of alteration concerned (increase of interlamellar spaces, interruption of elastic laminae, thickening of the elastic laminae, calcium deposition, mucopolysaccharide deposition); then all of the results per batch of animals were added;
as regards the number of atherosclerosis areas, by counting the latter and adding all the figures obtained per batch of animals.
as §6
Table XI gives the microscopic results with histological quotation as regards the severity of the lesions, and the number of atherosclerotic areas.

[2] = Toxicity of Compound No. 1 038, oral route, rats; format: in vivo; conditions: rat, in vivo, po
Excerpt: (§8) For Compound No. 1 038, the study of the toxicity has been carried out on rats and on mice to which the product has been administered by the oral route.
(§9) The results (expressed in g/kg) relative to LD50, LD0, and LD100 are gathered in the following table.

rats = experiment: Toxicity of Compound No. 1 038, oral route, rats; format: in vivo
Excerpt: as §8, §9

[3] = Toxicity of Compound No. 1 038, oral route, mice; format: in vivo; conditions: mouse, in vivo, po
Excerpt: as §8, §9

mice = experiment: Toxicity of Compound No. 1 038, oral route, mice; format: in vivo
Excerpt: as §8, §9

[4] = Subacute toxicity of compound No. 1 038; format: in vivo; conditions: about one month; 150,500 and 1 000 mg/kg
[5] = Toxicity, general statements; conditions: Compound No. 1 038: rats and mice, oral route; medicaments: general
[6] = test system: hyperlipidemia caused by the administration of TRITON; experiment: Triton test: lipid regulating activity in hyperlipidemia caused by TRITON W. R.; format: in vivo, WISTAR male rats; conditions: Rattus norvegicus, po, 250 mg/kg orally, 6 hours and/or 24 hours
Experimental: In a first series of experiments, products were tested on a hyperlipidemia caused by the administration of TRITON according to the following procedure.
The tests were carried out on groups of five WISTAR male rats whose weight varied from 150 to 175 g.
The tested products were administered, orally in the form of a 3% aqueous solution of tragacanth gum in the ratio of 1 ml per 100 g of body weight, in an amount corresponding to 250 mg/kg.
To carry out these tests, a hyperlipidemia was caused in the animals, by means of the product marketed by the ROHM and HAAS Company under the name TRITON W. R.
On this hyperlipidemia the effects obtained by the administration of the active substances according to the invention, are observed.
The tests were carried out as follows:
the rats were fasted for 18 hours, then the TRITON W. R. was administered intravenously in 10% aqueous solution in the proportion of 200 mg/kg;
simultaneously 250 mg/kg of the product under test was administered orally;
6 hours and/or 24 hours later, blood assays were carried out conventionally.
to the total cholesterol, […]

[7] = Acute toxicity, intraperitoneal, mice; conditions: mouse, in vivo, ip, intraperitoneally, read-out: lethal dose 50
Experimental: The acute toxicity is expressed by the lethal dose 50, that is to say the dose resulting in the death of 50% of the animals.
This study was carried out on mice, to which the products under test were administered intraperitoneally.
It was established as follows, for the following substances: […]

[8] = read-out: Total cholesterol, % of decrease with respect to Triton control
[9] = read-out: Total lipids, % of decrease with respect to Triton control
[10] = read-out: Triglycerides, % of decrease with respect to Triton control

## CCOC(=O)C(C)(C)Oc1ccc(Cl)cc1 [CLOFIBRATE, clofibrate, reference compound]
[1]
  TRIGLYCERIDES, % reduction with respect to the control diet: -24,14%
  CHOLESTEROL HDL, % with respect to the control diet: +104,17%
  CHOLESTEROL LDL, % reduction with respect to the control diet: -55,37%
  CHOLESTEROL HDL, Score with respect to clofibrate: 1,00
  CHOLESTEROL LDL, Score with respect to clofibrate: 1,00
  CHOLESTEROL T, Score with respect to clofibrate: 1,00
  TRIGLYCERIDES, Score with respect to clofibrate: 1,00
  CHOLESTEROL T, % reduction with respect to the control diet: -48,75%
Atherosclerosis lesions
  % decrease in animals afflicted with lesions: 18,18%
  Score with respect to the reference clofibrate (animals afflicted with lesions): 1,00
  AFFECTED ANIMALS %: 81,82%
aorta
  NUMBER OF ATHEROSCLEROTIC AREAS, percentage reduction with respect to the diet controls: 54,93%
  NUMBER OF ATHEROSCLEROTIC AREAS: 72%
  HISTOLOGICAL QUOTATION, score with respect to clofibrate: 1,00
  NUMBER OF ATHEROSCLEROTIC AREAS, score with respect to clofibrate: 1,00
  HISTOLOGICAL QUOTATION, percentage reduction with respect to the diet controls: 62,83%
  HISTOLOGICAL QUOTATION: 49%

## O=C(O)CCCNS(=O)(=O)c1cccc(C(F)(F)F)c1 [Compound No. 1038, (trifluoromethyl-3 benzenesulfonylamino)-4 butyric acid]
[1]
  TRIGLYCERIDES, % reduction with respect to the control diet: -20,69%
  CHOLESTEROL HDL, % with respect to the control diet: +83,33%
  CHOLESTEROL LDL, % reduction with respect to the control diet: -58,26%
  CHOLESTEROL HDL, Score with respect to clofibrate: 0,80
  CHOLESTEROL LDL, Score with respect to clofibrate: 1,05
  CHOLESTEROL T, Score with respect to clofibrate: 1,06
  TRIGLYCERIDES, Score with respect to clofibrate: 0,86
  CHOLESTEROL T, % reduction with respect to the control diet: -51,88%
Atherosclerosis lesions
  % decrease in animals afflicted with lesions: 33,33%
  Score with respect to the reference clofibrate (animals afflicted with lesions): 1,83
  AFFECTED ANIMALS %: 66,67%
aorta
  NUMBER OF ATHEROSCLEROTIC AREAS, percentage reduction with respect to the diet controls: 78,18%
  NUMBER OF ATHEROSCLEROTIC AREAS: 35%
  HISTOLOGICAL QUOTATION, score with respect to clofibrate: 1,06
  NUMBER OF ATHEROSCLEROTIC AREAS, score with respect to clofibrate: 1,42
  HISTOLOGICAL QUOTATION, percentage reduction with respect to the diet controls: 66,31%
  HISTOLOGICAL QUOTATION: 44%
[2]; female
  LD50: 15500 mg/kg
[2]; male
  LD50: 13000 mg/kg
rats; female
  LD0: 5000 mg/kg
  LD100: > 20000 mg/kg
rats; male
  LD0: 5000 mg/kg
  LD100: 20000 mg/kg
[3]; female
  LD50: 6600 mg/kg
[3]; male
  LD50: 6000 mg/kg
mice; female
  LD0: 5000 mg/kg
  LD100: 9000 mg/kg
mice; male
  LD0: 4000 mg/kg
  LD100: 9000 mg/kg
[4]
  therapeutic index: very satisfactory
[5]
  toxicity (in words): presents no toxicity

## COc1cc([N+](=O)[O-])c(Cl)cc1S(=O)(=O)NCCCCCC(=O)O [compound 362]
[6]; [8]
  change in vivo at 250 mg/kg: -10%
[6]; [9]
  change in vivo at 250 mg/kg: -39%
[6]; [10]
  change in vivo at 250 mg/kg: -88%
[7]
  LD50: 1760 mg/kg

## COc1cc([N+](=O)[O-])c(Cl)cc1S(=O)(=O)NCCCC(=O)O [compound 387]
[6]; [9]
  change in vivo at 250 mg/kg: -39%
[6]; [10]
  change in vivo at 250 mg/kg: -90%
[7]
  LD50: 3070 mg/kg

## CCOC(=O)CCCCCCCCCCNS(=O)(=O)c1cc(Cl)c([N+](=O)[O-])cc1OC [compound 502]
[6]; [8]
  change in vivo at 250 mg/kg: -16%
[6]; [9]
  change in vivo at 250 mg/kg: -45%
[6]; [10]
  change in vivo at 250 mg/kg: -32%
[7]
  LD50: 3070 mg/kg
